Consider 22 compounds from patent US20080039455A1, “PYRAZOLOPYRIMIDINES AND SALTS THEREOF, PHARMACEUTICAL COMPOSITIONS COMPRISING SAME, METHODS OF PREPARING SAME AND USES OF SAME” (priority 2006, published 2008).

Molecules are shown by their SMILES. Counter-ions that a name gives are not always drawn.

The target in experiment [1] is T1, human recombinant ALK1 (GST fused to ALK1 intracellular domain [His142-Gln503]) (Homo sapiens, UniProt P37023).
T1 construct: GST fused to ALK1 intracellular domain [His142-Gln503]; made in house
T1 sequence (P37023 142-503): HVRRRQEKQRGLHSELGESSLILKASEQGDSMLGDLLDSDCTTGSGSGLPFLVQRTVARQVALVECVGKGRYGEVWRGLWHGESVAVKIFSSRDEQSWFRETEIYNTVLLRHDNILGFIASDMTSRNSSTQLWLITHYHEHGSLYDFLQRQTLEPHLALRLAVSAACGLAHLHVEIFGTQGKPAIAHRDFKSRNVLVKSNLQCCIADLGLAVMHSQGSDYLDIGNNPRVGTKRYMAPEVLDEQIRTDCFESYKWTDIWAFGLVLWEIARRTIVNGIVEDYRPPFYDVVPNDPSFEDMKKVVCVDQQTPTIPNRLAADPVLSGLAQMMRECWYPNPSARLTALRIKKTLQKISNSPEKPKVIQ
In words: ALK1-Kinase Flashplate-Assay. It counts as biochemical. Conditions: 0.5 μM ATP, biotinylated α-casein substrate; read-out: Assay 1 (ALK1-Kinase Flashplate-Assay IC50 class). An outline of the steps:
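Radiometric Flashplate assay at 20 °C: GST-ALK1 intracellular domain (5 ng/well) with 1 μM biotinylated bovine α-casein, 0.5 μM ATP plus [γ-33P]ATP in Tris pH 8.0, 1 mM MnCl2, 1% or 5% DMSO, 60 min. Normalised to no-inhibitor (0%) and 10 mM EDTA (100%); IC50 by 4-parameter fit.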

The target of experiment [2] is T2, ALK1 (wildtype full-length ALK1 receptor) (Homo sapiens, UniProt P37023).
T2 construct: expression vector for wildtype full-length ALK1 receptor; expressed in transfected cells; host or cells: HepG2 (ATCC HB-8065), transient transfection with ALK1wt in pcDNA3.1
In words: ALK1 transactivation assay (ID1-promoter luciferase reporter in transfected HepG2 cells). It counts as cell-based. Conditions: ID1-luc reporter, 18 h, read-out: Assay 2 (ALK1 transactivation assay IC50 class). An excerpt: Biological Assay 2: ALK1 Transactivation Assay
Herein HepG2 cell-cultures were transiently transfected by known techniques with an ALK1 plasmid (expression vector for wildtype full-length ALK1 receptor) and ID1 reporter plasmid containing 1.3 kB (−1370 to +86) of the ID1-promoter upstream of a luciferase reporter gene. ID1 is a known target gene of ALK1 and therefore gets transactivated by cotransfection with the ALK1 receptor. The specific transactivation is quantified via relative light units (RLU) which are detected in dependence of luciferase expression. Therefore a commercially available detection kit which contains the luciferase substrate luciferine was used.
HepG2 cells, ATCC HB-8065
96well plate polypropylene for compound dilution in DMSO
DMEM Ham's F12 (Biochrom #F4815) with 10% FCS after dialysis, 1% PenStrep and 200 mM Glutamine
steadyliteHTS (Perkin Elmer# 6016981)
Day 1: Seeding of Cells on 96-Well Plates
HepG2 cells are seeded on 96-well plates at a density of 7000 cells/ well in DMEM/HamsF12+5% FCS (+1% P/S, +1% Gln).
Day 2: Transfection of Cells
200 ng DNA: 100 ng ID1-luc (in pGL3basic, Promega)+5 ng ALK1wt (in pcDNA3.1)+95 ng pcDNA3.1 (empty vector, Invitogen)
Fugene and OptiMEM are incubated for 5 min at RT. This mixture is incubated with the DNA for 15 min at RT.
Afterwards, the plate is incubated under shaking conditions at room temperature (RT) for 1 h. After 4 hours at 37° C. the supernatants are drawn off by suction and the wells are replaced with medium (100 μl/well) containing low serum (0.2% FCS) and test substances.
Plates are incubated for further 18 h at 37° C.
100 μl luciferase substrate (steadyliteHTS, Packard) are added per well and plates are measured after 10 minutes in a luminometer (e.g. Viktor luminometer, Perkin Elmer). Luciferase activity is quantified by relative light units (RLU).
Calculation of IC50: ALK1wt−DMSO Control (without ALK1)=100% Substance(+ALK1wt)−DMSO control (without ALK1)=x % IC50=50% inhibition of ALK1 transactivation activity Biological data are presented below: Biological assay 1: ALK1-Kinase Flashplate-Assay
(In general: A reporter such as luciferase makes a cellular process visible.)

T2 sequence (P37023 22-503): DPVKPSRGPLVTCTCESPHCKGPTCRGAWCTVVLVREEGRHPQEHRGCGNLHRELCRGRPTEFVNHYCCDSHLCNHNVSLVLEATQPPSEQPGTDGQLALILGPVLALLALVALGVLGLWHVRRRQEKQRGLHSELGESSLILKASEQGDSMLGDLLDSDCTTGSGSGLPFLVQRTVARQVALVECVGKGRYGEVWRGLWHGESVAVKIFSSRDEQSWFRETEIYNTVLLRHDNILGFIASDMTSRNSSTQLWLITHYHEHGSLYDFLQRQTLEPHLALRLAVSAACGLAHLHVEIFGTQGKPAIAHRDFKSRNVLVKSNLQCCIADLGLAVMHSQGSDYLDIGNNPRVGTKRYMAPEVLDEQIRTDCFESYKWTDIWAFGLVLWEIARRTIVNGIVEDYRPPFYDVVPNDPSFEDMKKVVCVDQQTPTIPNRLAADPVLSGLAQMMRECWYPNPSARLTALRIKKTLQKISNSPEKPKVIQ

With `COc1cc(-c2cnn3ccc(Nc4ccccc4)nc23)cc(OC)c1OC` [Example 2, phenyl-[3-(3,4,5-trimethoxy-phenyl)-pyrazolo[1,5-a]pyrimidin-5-yl]-amine], the results for the half-inhibitory concentration (IC50) in experiment [1] and in experiment [2] were below 1000 nM and below 10000 nM, respectively.

On to `COc1cc(-c2cnn3ccc(Nc4ccc(F)cc4)nc23)cc(OC)c1OC` [Example 3, (4-fluoro-phenyl)-[3-(3,4,5-trimethoxy-phenyl)-pyrazolo[1,5-a]pyrimidin-5-yl]-amine], for which the IC50 (as a rule, the midpoint of a concentration-inhibition curve) in experiment [1] was below 1000 nM; in experiment [2], below 10000 nM.

`COc1cc(OC)cc(-c2cnn3ccc(NC4CCN(C)CC4)nc23)c1` [Example 10, [3-(3,5-Dimethoxy-phenyl)-pyrazolo[1,5-a]pyrimidin-5-yl]-(1-methyl-piperidin-4-yl)-amine]: the results for the IC50 in experiment [1] and in experiment [2] were below 1000 nM and below 10000 nM, respectively.

With `COc1ccc(-c2cnn3ccc(Nc4ccc(N5CCOCC5)cc4)nc23)cn1` [Example 20, [3-(6-Methoxy-pyridin-3-yl)-pyrazolo[1,5-a]pyrimidin-5-yl]-(4-morpholin-4-yl-phenyl)-amine], the IC50 in experiment [1] was below 1000 nM; in experiment [2] it was below 10000 nM.

Take `FC(F)(F)c1cccc(-c2cnn3ccc(Nc4ccc(N5CCOCC5)nc4)nc23)c1` [Example 26, (6-Morpholin-4-yl-pyridin-3-yl)-[3-(3-trifluoromethyl-phenyl)-pyrazolo[1,5-a]pyrimidin-5-yl]-amine]: the IC50 in experiment [1] was below 1000 nM; in experiment [2], below 10000 nM.

In the case of `COc1ccc(-c2cnn3ccc(Nc4ccc(N5CCOCC5)cc4)nc23)cc1OC` [Example 27, [3-(3,4-Dimethoxy-phenyl)-pyrazolo[1,5-a]pyrimidin-5-yl]-(4-morpholin-4-yl-phenyl)-amine], the IC50 was below 1000 nM in experiment [1] and below 10000 nM in experiment [2].

Take `COc1cc(OC)cc(-c2cnn3ccc(Nc4ccc(N5CCOCC5)nc4)nc23)c1` [Example 30, [3-(3,5-Dimethoxy-phenyl)-pyrazolo[1,5-a]pyrimidin-5-yl]-(6-morpholin-4-yl-pyridin-3-yl)-amine]: the IC50 in experiment [1] is below 1000 nM; in experiment [2], below 10000 nM.

Consider `COc1cc(OC)cc(-c2cnn3ccc(Nc4ccc(N5CCOCC5)cc4)nc23)c1` [Example 127, [3-(3,5-Dimethoxy-phenyl)-pyrazolo[1,5-a]pyrimidin-5-yl]-(4-morpholin-4-yl-phenyl)-amine], for which the IC50 in experiment [1] is below 1000 nM; in experiment [2] it was below 10000 nM.

Take `CS(=O)(=O)c1cccc(-c2cnn3ccc(Nc4ccc(N5CCOCC5)cc4)nc23)c1` [Example 131, [3-(3-Methanesulfonyl-phenyl)-pyrazolo[1,5-a]pyrimidin-5-yl]-(4-morpholin-4-yl-phenyl)-amine]: the IC50 in experiment [1] was below 1000 nM; in experiment [2], below 10000 nM.

Regarding `COc1cc(-c2cnn3ccc(Nc4ccc(N5CCOCC5)cc4)nc23)cc(OC)c1OC` [Example 421, (4-Morpholin-4-yl-phenyl)-[3-(3,4,5-trimethoxy-phenyl)-pyrazolo[1,5-a]pyrimidin-5-yl]-amine], the half-maximal inhibitory concentration (IC50) in experiment [1] is below 1000 nM; in experiment [2], below 10000 nM.

Consider `COc1cncc(-c2cnn3ccc(Nc4ccc(N5CCOCC5)cc4)nc23)c1` [Example 422, [3-(5-Methoxy-pyridin-3-yl)-pyrazolo[1,5-a]pyrimidin-5-yl]-(4-morpholin-4-yl-phenyl)-amine], for which the 50% inhibitory concentration (IC50) in experiment [1] is below 1000 nM; in experiment [2], below 10000 nM.

On to `Cc1ccc(Nc2ccn3ncc(-c4cccc(O)c4)c3n2)cc1NS(C)(=O)=O` [Example 427, N-{5-[3-(3-Hydroxy-phenyl)-pyrazolo[1,5-a]pyrimidin-5-ylamino]-2-methyl-phenyl}-methanesulfonamide], for which the IC50 in experiment [1] is below 1000 nM; in experiment [2], below 10000 nM.

As to `CC(C)c1ccc(Nc2ccn3ncc(-c4cccc(C(N)=O)c4)c3n2)cc1` [Example 449, 3-[5-(4-Isopropyl-phenylamino)-pyrazolo[1,5-a]pyrimidin-3-yl]-benzamide], the IC50 is below 1000 nM in experiment [1] and below 10000 nM in experiment [2].

`COc1ccc(Nc2ccn3ncc(-c4ccc(OC)c(OC)c4)c3n2)cn1` [Example 465, [3-(3,4-Dimethoxy-phenyl)-pyrazolo[1,5-a]pyrimidin-5-yl]-(6-methoxy-pyridin-3-yl)-amine]: the results for the concentration for half-maximal inhibition (IC50) in experiment [1] and in experiment [2] were below 1000 nM and below 10000 nM, respectively.

For the compound `COc1cc(-c2cnn3ccc(NC4CCC(O)CC4)nc23)cc(OC)c1OC` (centres unmarked) [Example 474, 4-[3-(3,4,5-Trimethoxy-phenyl)-pyrazolo[1,5-a]pyrimidin-5-ylamino]-cyclohexanol], the IC50 in experiment [1] is below 1000 nM.

Consider `COc1ccc(-c2cnn3ccc(Nc4ccccc4)nc23)cc1OC` [Example 478, [3-(3,4-Dimethoxy-phenyl)-pyrazolo[1,5-a]pyrimidin-5-yl]-phenyl-amine], for which the IC50 in experiment [1] was in the range of 1000 to 10000 nM.

With `CCN(CC)CCCNc1ccn2ncc(-c3cccc(Cl)c3)c2n1` [Example 486, N′-[3-(3-chloro-phenyl)-pyrazolo[1,5-a]pyrimidin-5-yl]-N,N-diethyl-propane-1,3-diamine], the IC50 in experiment [1] was in the range of 1000 to 10000 nM.

For the compound `CN1CCC(Nc2ccn3ncc(-c4cccc(C(F)(F)F)c4)c3n2)CC1` [Example 490, (1-methyl-piperidin-4-yl)-[3-(3-trifluoromethyl-phenyl)-pyrazolo[1,5-a]pyrimidin-5-yl]-amine], the IC50 was below 1000 nM in experiment [1] and below 10000 nM in experiment [2].

For `CCN(CC)CCCNc1ccn2ncc(-c3ccc(C)c(Cl)c3)c2n1` [Example 492, N′-[3-(3-Chloro-4-methyl-phenyl)-pyrazolo[1,5-a]pyrimidin-5-yl]-N,N-diethyl-propane-1,3-diamine], the IC50 in experiment [1] lay within 1000 to 10000 nM.

Turning to `c1csc(-c2cnn3ccc(NC4CCCCC4)nc23)c1` [Example 494, Cyclohexyl-(3-thiophen-2-yl-pyrazolo[1,5-a]pyrimidin-5-yl)-amine], the IC50 in experiment [1] is 1000 to 10000 nM.

With `c1csc(-c2cnn3ccc(NC4CCNCC4)nc23)c1` [Example 495, Piperidin-4-yl-(3-thiophen-2-yl-pyrazolo[1,5-a]pyrimidin-5-yl)-amine bis TFA salt], the IC50 in experiment [1] was below 1000 nM; in experiment [2], below 10000 nM.

As to `c1csc(-c2cnn3ccc(NC4CCCNC4)nc23)c1` (centres unmarked) [Example 496, Piperidin-3-yl-(3-thiophen-2-yl-pyrazolo[1,5-a]pyrimidin-5-yl)-amine mono TFA salt], the IC50 in experiment [1] fell in the range of 1000 to 10000 nM.
